Measured values reported in patent USRE39682E1, “Farnesyl derivatives and pharmaceutical compositions containing them” (Ramot at Tel Aviv University Ltd., priority 1993, dated 2007).

How the values were obtained:
[1] = biological target: T1, PPMTase (Rattus norvegicus, UniProt Q9WVM4); assay: PPMTase activity (AFC methylation) in membranes of non-transformed Rat-1 cells; type: biochemical; settings: non-transformed Rat-1 membranes; for PPMTase activity: with inhibitor
T1 construct: PPMTase activity in membranes obtained from four different cell lines as determined by methylation of AFC; endogenous in cells; host or cells: ras-transformed rat1 (EJ) cell membranes
Method: (§1) Charles River adult male rats were used for preparation of cerebellar synaptosomal membranes. Cerebella were removed after decapitation and homogenized in 0.32M sucrose containing 50 mM Tris-HCl pH 7.4, 3 mM EDTA, 1 mM EGTA, 5 unit/ml aprotinin and 5 μg/ml pepstatin (buffer A) to yield 10% (w/v) homogenates. Nuclear fractions were obtained by 10 min. 600×g centrifugation and synaptosomal fractions were obtained by 20 mins. 14,500×g centrifugation. Membranes of the various cell types used were prepared in the above buffer A by a 60 min. spin at 100,000×g.
(§2) Pellets were resuspended in the homogenization buffer and stored at −70° C. Methylation assays were performed at 37° C. in 50 mM Tris-HCl buffer pH 7.4, using 75-125 μg protein, 25 μM [methyl-^3H]AdoMet ([…]) as a methyl donor and 150 μM AFC as a methylation substrate (prepared as a stock solution in DMSO) in a total volume of 50 μl. DMSO concentration in all assays was 4%.
(§3) Reactions were terminated after 10 min. by adding 500 μl chloroform methanol (1:1) and a subsequent addition of 250 μl H2O, mixing them and subsequently by phase separation. A portion of 125 μl of the chloroform phase was dried down at 40° C. and 200 μl of 1M NaOH/1% SDS solution were added thereto. The [^3H]methanol thus formed was counted by the vapor phase equilibrium method as described previously (Hakiai et al., Cell Mol. Neurobiol., 11, 415-431, (1991); Lenner et al., Cell Mol. Neurbiol., 12, 333 and 3351, (1992); Ben-Baruch et al., Biochem. Biophy. Res. Commun., 195, 282-288, (1993)). Typical background counts (i.e. counts of methylation with no AFC added) were 50-100 cpm while typical methylation counts with AFC as a substrate yielded 500 to 6000 cpm. Assays were performed in triplicate and background counts subtracted. Methylation of endogenous substrates, in intact cells, and [α-^32P] GTP-blot overlay assays and gel electrophoreses were performed as detailed previously (Hakiai et al., supra (1991); Lenner et al., supra (1993)).
(§4) The B16F10 melanoma cells were grown in RPMI 1640/10% fetal calf serum, 2 mM glutamine and antibiotics as for the HEC1A cells, at the density of 1×10^4 cells/well. All four types of cells were used for determining the PPMTase activity using AFC as the substrate as described above for synaptosomal membrane preparation. Usually 150 μg membranal proteins were used in the assay for a 10 min. incubation time.

[2] = system: human endometrial carcinoma HEC1A cells; assay: Growth of HEC1A cells (cell counting); type: cell-based; settings: 3 days of treatment
Text: The cell lines employed were rat1, -EJ, which are rat1 cells stably expressing Val- 12 activated human Ha-ras gene (Land H. et al., Nature, 304, 596-602, (1983)); V-raf-3T3, which are 3T3 cells stably expressing the V-raf gene (Xu, N., et al., Proc. Natl. Acad. Sci., 90, 6741-6745); RB-22, which are 3T3 cells stably expressing the rat Erb-B2 gene (Peles, et al., EMBO J., 10, 2077-2086 (1991)) CO6O cells (SV40-CHO), which are CHE cells stably expressing the SV-40 T-antigen gene (Lavi, Proc. Natl. Acad. Sci., 78, 6144-6148 (1981)); human endometrial carcinoma cell line HEC1A, which are cells that express activated K-ras (Enomoto T., Cancer Res., 50, 6139-6145; mouse B16F10 melanoma cells, rat pheochromocytoma PC12 cells, […] cells CHE and COS cells.
HEC1A, V-raf-3T3 and SV40-CHE cells were grown in Dulbecco's modified Eagle medium (DMEM) containing 10% fetal calf serum (FCS), 4 mM L-glutamine, 10 μg/ml streptomycin and 10 U/ml penicillin. Rat1 and -EJ cells were grown in the same medium except that it was supplemented with 12.5 U/ml nyostatin. RB-22 cells were grown in modified DMEM (1 mM sodium pyruvate, 20 mM sodium bicarbonate)/10% FCS containing 4 mM L-glutamine, […] streptomycin, 10 U/ml penicillin. PC-12 cells were grown in DMEM 15% FCS/5% horse serum and the above noted antibiotics.
HEC1A cells were plated in 24 well plates at a density of 5×10^3 cells per well and fed with 1 ml of medium. The cells were grown at 37° C. in a humidified atmosphere of 95%/5% air/CO2. All other cell types employed were plated in 24 well plates at a density of 2×10^3 cells per well and fed with the appropriate medium.
Cultures were treated with farnesyl derivatives or with solvent either 3 hrs following plating or one day after plating as indicated. The drugs were prepared in DMSO to yield the final desired drug (0.1-50 μM) concentration and 0.1% DMSO. Control cultures received 0.1% DMSO only. Cultures were fed on days 6, 7 and 9 of the experiment with the drugs or with solvent-containing media.
Cells were counted following 3, 7 and 10 days of beginning of treatments with drugs. For counting, cells were detached from plates with trypsin/EDTA, and collected by a low speed spin in the presence of DMEM/10% FCS. The pelleted cells were resuspended in a small volume of DMEM/10% FCS and counted under the microscope. Viability of cells was estimated by staining with (3-(4,5-dimethylthiosol-2-yl)-2,5-diphenyltetrazolium bromide (MTT) and microscopic examination of the stained and unstained cells, or spectrophotometric estimation (OD490, 590) of the total stain in each well. Non viable cells were estimated by the trypan blue exclusion method. […]

[3] = biological target: T2, PPMTase (Homo sapiens, UniProt O60725); assay: PPMTase activity (AFC methylation) in membranes of HEC1A cells; type: biochemical; settings: for PPMTase activity: with inhibitor
T2 construct: PPMTase activity in membranes obtained from four different cell lines as determined by methylation of AFC; endogenous in cells; host or cells: HEC1A cell membranes
Method: as §1, §2, §3, §4

[4] = Homo sapiens, HEC-1-A, 72 h, at 10 μM FTS or 50 μM FTA, read-out: maximal effects, inhibition of growth

T1 sequence (Q9WVM4 whole entry): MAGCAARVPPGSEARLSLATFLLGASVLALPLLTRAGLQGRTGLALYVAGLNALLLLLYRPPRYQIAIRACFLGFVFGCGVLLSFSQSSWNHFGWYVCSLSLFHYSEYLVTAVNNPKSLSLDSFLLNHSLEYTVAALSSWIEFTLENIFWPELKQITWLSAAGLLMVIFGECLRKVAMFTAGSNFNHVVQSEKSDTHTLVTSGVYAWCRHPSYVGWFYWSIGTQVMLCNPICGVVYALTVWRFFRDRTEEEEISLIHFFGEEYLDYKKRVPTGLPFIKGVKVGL
T2 sequence (O60725 whole entry): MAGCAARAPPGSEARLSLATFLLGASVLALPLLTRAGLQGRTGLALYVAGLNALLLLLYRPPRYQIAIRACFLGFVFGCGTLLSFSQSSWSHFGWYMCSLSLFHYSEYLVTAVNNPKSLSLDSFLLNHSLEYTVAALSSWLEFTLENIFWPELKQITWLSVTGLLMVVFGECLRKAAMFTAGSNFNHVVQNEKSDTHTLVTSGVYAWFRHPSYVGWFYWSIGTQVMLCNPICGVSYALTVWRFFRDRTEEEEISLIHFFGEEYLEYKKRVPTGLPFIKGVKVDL

Compound | % Inhibition [1] | PPMTase activity [1] | concentration of maximal effects on growth [2] | Emax [2, 4] | % Inhibition [3] | PPMTase activity [3] | Emax at 10 µM [2, 4]
CC(C)=CCC/C(C)=C/CC/C(C)=C/CSCC(=O)O [FTA, S-trans, trans-farnesylthioacetic acid, reference compound] | 66% | 0.9 pmol/min/mg protein | 50 µM | ~50% | 43% | 1.7 pmol/min/mg protein | 
CC(C)=CCC/C(C)=C/CC/C(C)=C/CSc1ccccc1C(=O)O [FTS, (3,7,11-trimethyl-dodeca-2,6,10-trienyl)-2-thiobenzoic acid] | 45% | 1.5 pmol/min/mg protein | 10 µM |  | 40% | 1.5 pmol/min/mg protein | ~50%
